The values that follow come from publication PMC6271988, “New Potentially Active Pyrazinamide Derivatives Synthesized Under Microwave Conditions” (Molecules, 2014).

Converted amounts (≈) assume the structure as drawn. Read-outs that look alike come from different tables or passages of the source. Where only a bound is given, the exact number is not on record here.

In general, IC80 refers to the concentration needed for an effect of 80%. By IC50 is commonly meant the concentration that inhibits the measured activity by half. High values mean a need for much substance, low ones inhibition by little substance. By MIC is commonly meant the smallest concentration in the dilution series that meets the test's criterion for growth inhibition. A lower MIC goes with greater potency.

Series [1] can be described thus: Lipophilicity HPLC determination (logk). The class given is physicochemical. As to conditions: HPLC capacity factor, C18, MeOH 70%/H2O 30%, 30 °C.
The test system of series [2] is Staphylococcus epidermidis. As to the kind of experiment: Antibacterial in vitro screening, microdilution broth method. Type of series: cell-based. As to conditions: 80% inhibition of control. (In broth dilution the organism is exposed to a series of concentrations in liquid medium.)
The subject of series [3] is PET in spinach chloroplasts. As to the kind of experiment: Photosynthetic electron transport (PET) inhibition, DCPIP photoreduction. The class given is biochemical, Spinacia oleracea L. As to conditions: DCPIP photoreduction. The protocol: The inhibition of photosynthetic electron transport (PET) in spinach chloroplasts was determined spectrophotometrically (Genesys 6, Thermo Scientific, Madison, WI, USA) using an artificial electron acceptor 2,6-dichlorophenol-indophenol (DCPIP). The rate of photosynthetic electron transport was monitored as a photoreduction of DCPIP. Chloroplasts were prepared from Spinacia oleracea L.. The measurements were carried out in phosphate buffer (0.02 mol/L, pH 7.2) containing sucrose (0.4 mol/L), MgCl2 (0.005 mol/L) and NaCl (0.015 mol/L). The chlorophyll concentration was 30 mg/L and the samples were irradiated (~100 W/m^2 with 10 cm distance) with a halogen lamp (250 W). […] The studied compound were dissolved in DMSO due to their limited water solubility. […] The efficiency of studied compounds was expressed as 50% inhibition concentration relative to the untreated control. The standard for these measurements was DCMU (Diurone®).

In series [4] the test system is spectrum of fungi tested (8 fungal strains). As to the kind of experiment: Antifungal evaluation, summary over the fungi tested. The class given is cell-based. The protocol:
(§1) Antifungal evaluation was also accomplished with microdilution broth method. On the contrary, there was used RPMI 1640 broth with glutamine as medium and conditions were humid and dark atmosphere, pH 7.0 (adjusted with 0.165 M morpholinepropanesulfonic acid, MOPS) and 35 °C. 8 fungal strains were used (Candida albicans ATCC 44859, Candida tropicalis 156, Candida krusei E28, Candida glabrata 20/I, Trichosporon asahii 1188, Aspergillus fumigatus 231, Lichtheimia corymbifera 272, Trichophyton mentagrophytes 445) together with four antimycotic standards amphotericin B, voriconazole, nystatin and fluconazole.

For series [5], the system named is aromatic amino acids of photosynthetic proteins in spinach chloroplasts. Kind of series: Fluorescence emission spectra of aromatic amino acids in chloroplast suspension. To be noted: c = 0, 6, 24 and 48 μmol/L; excitation 275 nm; chlorophyll 10 mg/L. Also on record: species or system Spinacia oleracea L. The protocol: The emission fluorescence spectra of aromatic amino acids were recorded on the fluorescence spectrophotometer F-2000 (Hitachi, Tokyo, Japan). The samples of chloroplast suspensions with and without studied inhibitor were excited at wavelength of 275 nm, excitation slit 20 nm and emission slit 10 nm. The samples were kept in the dark for 2 min prior to the measurement. The phosphate buffer used for dilution of the chloroplast suspension was the same as described above. The compounds were added to chloroplast suspension in DMSO solution due to low aqueous solubility. The DMSO concentration in all samples was the same as in the control (10%). The chlorophyll concentration in chloroplast suspension was 10 mg/L.

The subject of series [6] is Aspergillus fumigatus 231. Kind of series: Antifungal evaluation, microdilution broth method. Type of series: cell-based. To be noted: Aspergillus fumigatus, 231, AF. The protocol:
as §1

The test system of series [7] is Candida albicans ATCC 44859. As to the kind of experiment: Antifungal evaluation, microdilution broth method. Type of series: cell-based. To be noted: Candida albicans, ATCC44859, CA. The protocol:
as §1

The subject of another series is Candida glabrata 20/I. As to the kind of experiment: Antifungal evaluation, microdilution broth method. The class given is cell-based. As to conditions: Nakaseomyces glabratus, 20/I, CG. How it is done:
as §1

The next series has as its system Candida krusei E28. As to the kind of experiment: Antifungal evaluation, microdilution broth method. The class given is cell-based. As to conditions: Pichia kudriavzevii, E28, CK. The protocol:
as §1

The test system of another series is Candida tropicalis 156. Kind of series: Antifungal evaluation, microdilution broth method. The class given is cell-based. As to conditions: Candida tropicalis, 156, CT. How it is done: as §1
Series [8] has as its system Lichtheimia corymbifera 272. As to the kind of experiment: Antifungal evaluation, microdilution broth method. Type of series: cell-based. As to conditions: Lichtheimia corymbifera, 272, LC. How it is done: as §1
Series [9] has as its system Trichophyton mentagrophytes 445. Kind of series: Antifungal evaluation, microdilution broth method. Type of series: cell-based. To be noted: Trichophyton mentagrophytes, 445, TM. How it is done:
as §1

Another series relates to Trichosporon asahii 1188. As to the kind of experiment: Antifungal evaluation, microdilution broth method. As to conditions: Trichosporon asahii, 1188, TA. Type of series: cell-based. The protocol: as §1
Series [10] deals with Mycobacterium tuberculosis H37Rv. Kind of series: Antimycobacterial in vitro screening, microdilution broth panel method, Alamar Blue. To be noted: 336 h, M. tuberculosis H37Rv, Middlebrook 7H9, 14 days of incubation. Type of series: cell-based.
[11] abbreviates: fungi tested, less active than the standards, read-out: IC80 antifungal.
[12] abbreviates: nearly a whole spectrum of fungi tested, after 24 h of incubation, read-out: 80% inhibition of control (IC80), range over fungi.

`CCCCCNc1nccnc1C(N)=O` [Compound 5, 3-(Pentylamino)pyrazine-2-carboxamide] yielded a logk in series [1] of 0.4563. In addition, the figures for the IC80 in series [2] and in series [4] (setting [11]) were under 250 µM and at least 250 µM, respectively. In [3], this molecule returned a 50% inhibitory concentration (IC50) of 38.6 µM.
In turn, `CCCCCCNc1nccnc1C(N)=O` [Compound 7, 3-(Hexylamino)pyrazine-2-carboxamide] returned a logk in series [1] of 0.6860. The IC80 is under 250 µM in series [2] and at least 250 µM in series [4] (setting [11]). The molecule also had an IC50 in series [3] of 32.9 µM. Further, the “Quenching of aromatic amino acid fluorescence at 334 nm” value in series [5] is given as “increased with increasing concentration”.
The molecule `NC(=O)c1nccnc1NC1CCCCC1` [Compound 12, 3-(Cyclohexylamino)pyrazine-2-carboxamide] gave a logk in series [1] of 0.4523. For the same molecule, the IC80 in [6] (24 h) is 15.6 µM; in series [6] (48 h), 62.5 µM; in series [7] (24 h), 31.2 µM; in series [7] (48 h), 62.5 µM; in the series on Candida glabrata 20/I (24 h), 15.6 µM; with Candida glabrata 20/I (48 h), 31.2 µM. In addition, the IC80 stood at 15.6 µM in the series on Candida krusei E28 (24 h); 62.5 µM in the series with Candida krusei E28 (48 h); 125 µM in the series on Candida tropicalis 156 (24 h); 500 µM with Candida tropicalis 156 (48 h); 250 µM in series [8] (24 h); 500 µM in series [8] (48 h). For the same molecule, the IC80 in series [9] (72 h) was 15.6 µM; in [9] (120 h), 15.6 µM; with Trichosporon asahii 1188 (24 h) it was 31.2 µM; in the series with Trichosporon asahii 1188 (48 h), 250 µM; in series [4] (setting [12]), 15.6 to 31.2 µM. The molecule further displayed a concentration for half-maximal inhibition (IC50) in [3] of 83 µM.
`NC(=O)c1nccnc1NC1CCCCCC1` [Compound 13, 3-(Cycloheptylamino)pyrazine-2-carboxamide] came in with a logk in series [1] of 0.6575. Moreover, the IC80 in [2] was under 250 µM; in series [6] (24 h), 7.81 µM; in series [6] (48 h), 7.81 µM; in series [7] (24 h), 15.6 µM; in [7] (48 h) it was 31.2 µM; in the series on Candida glabrata 20/I (24 h) it was 7.81 µM. The IC80 in the series on Candida glabrata 20/I (48 h) was determined as 15.6 µM; with Candida krusei E28 (24 h), 7.81 µM; in the series on Candida krusei E28 (48 h), 31.2 µM; with Candida tropicalis 156 (24 h) it was 62.5 µM; in the series with Candida tropicalis 156 (48 h), 500 µM; in [8] (24 h) it was 62.5 µM. The IC80 in series [8] (48 h) was 250 µM; in series [9] (72 h), 15.6 µM; in series [9] (120 h), 15.6 µM; in the series with Trichosporon asahii 1188 (24 h), 31.2 µM; in the series on Trichosporon asahii 1188 (48 h), 125 µM; in series [4] (setting [12]), 7.81 to 31.2 µM. Moreover, in [3], half-maximal inhibition (IC50) required 19.3 µM.
Regarding `NNC(=O)c1ccncc1` [isoniazid], 0.39 µg/mL (≈ 2.84 µM) was the least that counted as inhibitory in series [10] (MIC).
The same measure, in the same setting: the figure for `NC(=O)c1cnccn1` [pyrazinamide] is 12.5 µg/mL (≈ 102 µM).
